Test system: HEK293 cells
Test: Preliminary screening as mRNA vectors, EGFP mRNA transfection of HEK293 cells
Format: cell-based
Conditions: EGFP mRNA 50 ng per well, 96-well plates; percentage of GFP fluorescent cells relative to total number of cells (Hoechst)
Outline: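 Each well of HEK293 cells received 50 ng of EGFP mRNA. Efficiency was expressed as percent GFP-expressing cells over Hoechst-defined total cell number.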

| Structure (SMILES) | Absolute mRNA transfection efficiency in HEK293 cells [%] |
| --- | --- |
| CCCCCCCCCCCCN(CCCCCCCCCCCC)c1nc(NCCN2CCCC2)nc(SCCCCCCCC)n1 [D3S8^2N12] | 0.9 |
| CCCCCCCCCCCCN(CCCCCCCCCCCC)c1nc(NCCN2CCCC2)nc(SCCCCCCCCC)n1 [D3S9^2N12] | 1.3 |
| CCCCCCCCCCCCN(CCCCCCCCCCCC)c1nc(NCCN2CCCC2)nc(SCCCCCCCCCC)n1 [D3S10^2N12] | 0.1 |
| CCCCCCCCCCCCN(CCCCCCCCCCCC)c1nc(NCCN2CCCC2)nc(SCCCCCCCCCCC)n1 [D3S11^2N12] | 0.0 |
| CCCCCCCCCCCCSc1nc(NCCN2CCCC2)nc(N(CCCCCCCCCCCC)CCCCCCCCCCCC)n1 [D3S12^2N12] | 2.2 |
| CCCCCCCCCCCCCCSc1nc(NCCN2CCCC2)nc(N(CCCCCCCCCCCC)CCCCCCCCCCCC)n1 [D3S14^2N12] | 0.2 |
| CCCCCCCCCCCCCCCSc1nc(NCCN2CCCC2)nc(N(CCCCCCCCCCCC)CCCCCCCCCCCC)n1 [D3S15^2N12] | 1.7 |
| CCCCCCCCCCCCCCCCSc1nc(NCCN2CCCC2)nc(N(CCCCCCCCCCCC)CCCCCCCCCCCC)n1 [D3S16^2N12] | 0.2 |
| CCCCCCCCCCCCCCCCCCSc1nc(NCCN2CCCC2)nc(N(CCCCCCCCCCCC)CCCCCCCCCCCC)n1 [D3S18^2N12] | 0.1 |
| CCCCCCCCCCCCN(CCCCCCCCCCCC)c1nc(NCCN2CCCCC2)nc(SCCCCCC)n1 [D4S6^2N12] | 2.2 |
| CCCCCCCCCCCCN(CCCCCCCCCCCC)c1nc(NCCN2CCCCC2)nc(SCCCCCCC)n1 [D4S7^2N12] | 1.0 |
| CCCCCCCCCCCCN(CCCCCCCCCCCC)c1nc(NCCN2CCCCC2)nc(SCCCCCCCC)n1 [D4S8^2N12] | 1.1 |
| CCCCCCCCCCCCN(CCCCCCCCCCCC)c1nc(NCCN2CCCCC2)nc(SCCCCCCCCC)n1 [D4S9^2N12] | 0.1 |
| CCCCCCCCCCCCN(CCCCCCCCCCCC)c1nc(NCCN2CCCCC2)nc(SCCCCCCCCCC)n1 [D4S10^2N12] | 0.1 |
| CCCCCCCCCCCCN(CCCCCCCCCCCC)c1nc(NCCN2CCCCC2)nc(SCCCCCCCCCCC)n1 [D4S11^2N12] | 0.5 |
| CCCCCCCCCCCCSc1nc(NCCN2CCCCC2)nc(N(CCCCCCCCCCCC)CCCCCCCCCCCC)n1 [D4S12^2N12] | 0.5 |
| CCCCCCCCCCCCCCSc1nc(NCCN2CCCCC2)nc(N(CCCCCCCCCCCC)CCCCCCCCCCCC)n1 [D4S14^2N12] | 0.2 |
| CCCCCCCCCCCCCCCSc1nc(NCCN2CCCCC2)nc(N(CCCCCCCCCCCC)CCCCCCCCCCCC)n1 [D4S15^2N12] | 0.2 |
| CCCCCCCCCCCCCCCCSc1nc(NCCN2CCCCC2)nc(N(CCCCCCCCCCCC)CCCCCCCCCCCC)n1 [D4S16^2N12] | 0.3 |
| CCCCCCCCCCCCCCCCCCSc1nc(NCCN2CCCCC2)nc(N(CCCCCCCCCCCC)CCCCCCCCCCCC)n1 [D4S18^2N12] | 0.3 |
| CCCCCCCCCCCCN(CCCCCCCCCCCC)c1nc(NCCN2CCN(C)CC2)nc(SCCCCCC)n1 [D5S6^2N12] | 0.3 |

| Structure (SMILES) | Absolute mRNA transfection efficiency in HEK293 cells [%] |
| --- | --- |
| CCCCCCCCCCCCN(CCCCCCCCCCCC)c1nc(NCCN2CCN(C)CC2)nc(SCCCCCCC)n1 [D5S7^2N12] | 0.2 |
| CCCCCCCCCCCCN(CCCCCCCCCCCC)c1nc(NCCN2CCN(C)CC2)nc(SCCCCCCCC)n1 [D5S8^2N12] | 0.9 |
| CCCCCCCCCCCCN(CCCCCCCCCCCC)c1nc(NCCN2CCN(C)CC2)nc(SCCCCCCCCC)n1 [D5S9^2N12] | 0.4 |
| CCCCCCCCCCCCN(CCCCCCCCCCCC)c1nc(NCCN2CCN(C)CC2)nc(SCCCCCCCCCC)n1 [D5S10^2N12] | 0.1 |
| CCCCCCCCCCCCN(CCCCCCCCCCCC)c1nc(NCCN2CCN(C)CC2)nc(SCCCCCCCCCCC)n1 [D5S11^2N12] | 0.6 |
| CCCCCCCCCCCCSc1nc(NCCN2CCN(C)CC2)nc(N(CCCCCCCCCCCC)CCCCCCCCCCCC)n1 [D5S12^2N12] | 1.6 |
| CCCCCCCCCCCCCCSc1nc(NCCN2CCN(C)CC2)nc(N(CCCCCCCCCCCC)CCCCCCCCCCCC)n1 [D5S14^2N12] | 0.9 |
| CCCCCCCCCCCCCCCSc1nc(NCCN2CCN(C)CC2)nc(N(CCCCCCCCCCCC)CCCCCCCCCCCC)n1 [D5S15^2N12] | 0.9 |
| CCCCCCCCCCCCCCCCSc1nc(NCCN2CCN(C)CC2)nc(N(CCCCCCCCCCCC)CCCCCCCCCCCC)n1 [D5S16^2N12] | 0.1 |
| CCCCCCCCCCCCCCCCCCSc1nc(NCCN2CCN(C)CC2)nc(N(CCCCCCCCCCCC)CCCCCCCCCCCC)n1 [D5S18^2N12] | 0.0 |
| CCCCCCCCCCCCN(CCCCCCCCCCCC)c1nc(NCCCN(C)C)nc(SCCCCCC)n1 [D6S6^2N12] | 0.0 |
| CCCCCCCCCCCCN(CCCCCCCCCCCC)c1nc(NCCCN(C)C)nc(SCCCCCCC)n1 [D6S7^2N12] | 0.9 |
| CCCCCCCCCCCCN(CCCCCCCCCCCC)c1nc(NCCCN(C)C)nc(SCCCCCCCC)n1 [D6S8^2N12] | 1.5 |
| CCCCCCCCCCCCN(CCCCCCCCCCCC)c1nc(NCCCN(C)C)nc(SCCCCCCCCC)n1 [D6S9^2N12] | 1.7 |
| CCCCCCCCCCCCN(CCCCCCCCCCCC)c1nc(NCCCN(C)C)nc(SCCCCCCCCCC)n1 [D6S10^2N12] | 0.1 |
| CCCCCCCCCCCCN(CCCCCCCCCCCC)c1nc(NCCCN(C)C)nc(SCCCCCCCCCCC)n1 [D6S11^2N12] | 3.2 |
| CCCCCCCCCCCCSc1nc(NCCCN(C)C)nc(N(CCCCCCCCCCCC)CCCCCCCCCCCC)n1 [D6S12^2N12] | 2.4 |
| CCCCCCCCCCCCCCSc1nc(NCCCN(C)C)nc(N(CCCCCCCCCCCC)CCCCCCCCCCCC)n1 [D6S14^2N12] | 0.1 |
| CCCCCCCCCCCCCCCSc1nc(NCCCN(C)C)nc(N(CCCCCCCCCCCC)CCCCCCCCCCCC)n1 [D6S15^2N12] | 2.9 |
| CCCCCCCCCCCCCCCCSc1nc(NCCCN(C)C)nc(N(CCCCCCCCCCCC)CCCCCCCCCCCC)n1 [D6S16^2N12] | 1.0 |
| CCCCCCCCCCCCCCCCCCSc1nc(NCCCN(C)C)nc(N(CCCCCCCCCCCC)CCCCCCCCCCCC)n1 [D6S18^2N12] | 0.1 |

— US20230123334A1, “AMINO LIPID COMPOUND, PREPARATION METHOD THEREFOR, AND APPLICATION THEREOF” (SHENZHEN SHENXIN BIOTECHNOLOGY CO., LTD., priority 2020, published 2023)
